Experimental data as given in patent US4296126A, “3-Aryloxy-3-aryl-propaneamines and their method of use” (Roussel Uclaf, priority 1978, dated 1981).
Counter-ions that a name gives are not always drawn.

Legend:
[1] = Acute toxicity, LD50 in mice after intraperitoneal administration; conditions: mouse, in vivo, ip, determined 48 hours after administration
Protocol: The LD50 or lethal dose at which 50% of the animals died after intraperitoneal administration of the test compound to mice was determined 48 hours after the administration.

[2] = test system: dogs; assay: Anorexigenic activity in dogs (method of Adams et al); assay type: in vivo, dog; conditions: Canis lupus familiaris, po, compound given in lieu of first ball, balls offered every 10 minutes for 7 hours, activity grew with increasing doses, read-out: dose at which anorexigenic activity was shown (refusal of food balls)
Protocol: The anorexigenic activity was studied in dogs using the method of Adams et al [J. Pharm. Sci., Vol. 53, (1964), p. 1405]. On the day of the test with the compound presumed to be anorexigenic, the individual daily ration of the animal was divided into about equal balls (10 to 20 g) which were offered to the dog every 10 minutes for 7 hours. Normally, the animal will regularly accept the successive balls when they are presented.

`CN(C)CCC(Oc1ccc([N+](=O)[O-])cc1)c1ccccc1` (centres unmarked) [Example 1, N,N-dimethyl-γ-(4-nitrophenoxy)-benzene-propanamine oxalate] gave an LD50 at 48 h [1] of about 75 mg/kg and a minimal effective dose [2] of 3 mg/kg.
